Test results taken from US8946431B2, “2-(substituted ethynyl)quinoline derivatives as mGLUr5 antagonists” (Korea Institute of Science and Technology, priority 2013, dated 2015).
Like-named read-outs stand apart in the source and are kept apart here. Marks after values point to notes of the source that are not given here.

What was measured:
CYP2C9 = CYP2C9 (Homo sapiens, UniProt P11712); assay: CYP inhibitory rate, CYP2C9; format: in vitro ADME
mGluR5 [1] = target: T1, mGluR5 (Homo sapiens, UniProt P41594); assay: Assay for m-GluR5 activity using FDSS6000 (calcium mobilization by L-glutamate in mGluR5/HEK293 cells); format: cell-based; conditions: HEK293, L-glutamate 10 uM, HEK cells expressing m-GluR5, read-out: % Inhibition rate (mGluR5)
T1 construct: host or cells: HEK293 (human embryonic kidney) cells stably expressing m-GluR5
T1 sequence (P41594 21-1212): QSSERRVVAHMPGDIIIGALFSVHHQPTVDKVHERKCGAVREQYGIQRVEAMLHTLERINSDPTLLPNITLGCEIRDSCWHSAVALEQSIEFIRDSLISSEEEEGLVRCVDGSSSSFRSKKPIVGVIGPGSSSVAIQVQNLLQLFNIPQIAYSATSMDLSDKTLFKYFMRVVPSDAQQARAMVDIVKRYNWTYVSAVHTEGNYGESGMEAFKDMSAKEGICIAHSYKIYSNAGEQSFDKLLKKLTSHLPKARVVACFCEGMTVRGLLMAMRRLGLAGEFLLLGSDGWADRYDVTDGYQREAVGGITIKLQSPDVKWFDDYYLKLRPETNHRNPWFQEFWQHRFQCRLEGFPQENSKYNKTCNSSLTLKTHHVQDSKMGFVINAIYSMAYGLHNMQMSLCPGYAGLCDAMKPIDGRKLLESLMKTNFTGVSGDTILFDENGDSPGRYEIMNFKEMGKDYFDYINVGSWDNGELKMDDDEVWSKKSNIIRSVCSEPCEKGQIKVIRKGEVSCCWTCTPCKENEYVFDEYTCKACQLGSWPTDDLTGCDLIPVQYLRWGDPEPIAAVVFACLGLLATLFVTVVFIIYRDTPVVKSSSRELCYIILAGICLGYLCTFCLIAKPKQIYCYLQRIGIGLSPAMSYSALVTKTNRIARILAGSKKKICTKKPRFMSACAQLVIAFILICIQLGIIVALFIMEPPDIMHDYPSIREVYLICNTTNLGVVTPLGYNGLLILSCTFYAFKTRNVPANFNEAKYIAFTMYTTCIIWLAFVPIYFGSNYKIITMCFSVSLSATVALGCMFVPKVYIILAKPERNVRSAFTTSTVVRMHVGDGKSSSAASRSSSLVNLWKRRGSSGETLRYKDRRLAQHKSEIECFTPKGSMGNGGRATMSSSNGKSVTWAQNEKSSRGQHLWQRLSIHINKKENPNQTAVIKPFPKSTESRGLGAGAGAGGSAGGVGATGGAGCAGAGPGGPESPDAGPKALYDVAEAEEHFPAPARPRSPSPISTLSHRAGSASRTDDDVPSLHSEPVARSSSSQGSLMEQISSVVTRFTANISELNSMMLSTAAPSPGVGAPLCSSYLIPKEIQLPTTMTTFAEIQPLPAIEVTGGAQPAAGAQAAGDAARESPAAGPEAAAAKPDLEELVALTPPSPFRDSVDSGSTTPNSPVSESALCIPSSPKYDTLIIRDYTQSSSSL
Protocol: Inhibitory activity (%) of the compound represented by Formula 1 on calcium mobilization developed at a high concentration of glutamate in mGluR5/HEK293 cells was measured by using a high throughput FDSS6000.
After HEK cells stably expressing m-GluR5 (Human embryonic kidney cell line; m-GluR5: Yonsei University) were prepared at a density of 4×10^4/Ml per well, aliquots of 100 μl from the cell suspension were distributed evenly into a 96-well plate and incubated for 18 hr at 37° C., 5% CO2. The well plate was washed with a HBSS buffer to remove the culture medium, and reacted with a HBSS buffer containing a Ca^2+ fluorescent dye (FLIPR Calcium 5 assay kit: Molecular Devices) for 30 min at 37° C., 5% CO2, thereby labeling with the fluorescent dye. Separately from the 96-well plate including the cells, another 96-well plate including L-glutamate (final concentration: 10 uM) capable of activating m-GluR5 and a blacking agent was prepared. Since most of cell-based HTS devices are equipped with a liquid application system for injection of a drug, but have no liquid sucking system, the blocking agent to be tested and L-glutamate were respectively provided at a 6-fold higher concentration in a HBSS buffer at the amount of 25 μl, diluted by six-times at the final cell plate volume of 150 μl, and then used in this assay. Briefly, the FDSS6000 assay was carried out by recording a reference level of 20 sec, pre-treating with a blocking agent for 75 sec, and then measuring the change in intracellular calcium level depending on the administration of L-glutamate. After the area of a 480/520 ratio value in a control without treatment of a test drug was set to 100%, an inhibitory effect of the test drug was calculated as a percentage (%) thereon.
For accurate calcium imaging, the light source of 4 xenon lamps in FDSS6000 were radiated to selectively expose the cells to the excitation wavelength (480 nm) by a computer-controlled filter wheel. Data were obtained at intervals of 1.23 sec. The emitter fluorescence light inflowed through a 520 nm long-pass filter was obtained as an average 480/520 ratio value for each well in the 96-wells by using a CCD camera and a digital fluorescence analyzer in FDSS6000. All image data and analyses were obtained by using a FDSS6000-exclusive program from Hamamatsu Photonics.

[2] = rat
[3] = test system: SNL (spinal nerve ligation) neuropathic pain models; assay: In vivo test in SNL (spinal nerve ligation) neuropathic pain models; conditions: orally administered, SNL model, compared with gabapentin as control (FIG. 1 C, D)
Text: The compound prepared in Example 26 was subjected to an in vivo test as follows. […] Here, gabapentin was used as a control.

mGluR5 [4] = target: T1, mGluR5; assay: Inhibitory concentration (IC50) on mGluR5; format: cell-based
[5] = HLM (human liver microsomal) stability; format: in vitro ADME; conditions: human liver microsomes
CYP3A4 = CYP3A4 (Homo sapiens, UniProt P08684); assay: CYP inhibitory rate, CYP3A4; format: in vitro ADME
CYP3A4, sequence (P08684 whole entry): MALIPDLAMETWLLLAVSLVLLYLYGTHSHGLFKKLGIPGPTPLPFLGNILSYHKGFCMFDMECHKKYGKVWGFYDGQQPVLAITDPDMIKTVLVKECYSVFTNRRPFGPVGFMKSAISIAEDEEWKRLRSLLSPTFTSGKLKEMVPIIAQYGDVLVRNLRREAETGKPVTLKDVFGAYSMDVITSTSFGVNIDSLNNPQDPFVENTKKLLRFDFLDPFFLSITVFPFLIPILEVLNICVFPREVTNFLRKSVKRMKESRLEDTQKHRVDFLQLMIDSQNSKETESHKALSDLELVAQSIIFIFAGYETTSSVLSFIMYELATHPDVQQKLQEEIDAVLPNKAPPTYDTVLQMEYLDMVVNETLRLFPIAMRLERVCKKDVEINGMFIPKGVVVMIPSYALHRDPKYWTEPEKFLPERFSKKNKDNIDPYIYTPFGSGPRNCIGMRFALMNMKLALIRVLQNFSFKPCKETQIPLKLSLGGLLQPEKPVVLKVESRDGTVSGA

hERG = hERG (Homo sapiens, UniProt Q12809); assay: Inhibitory concentration (IC50) on hERG
hERG, sequence (Q12809 whole entry): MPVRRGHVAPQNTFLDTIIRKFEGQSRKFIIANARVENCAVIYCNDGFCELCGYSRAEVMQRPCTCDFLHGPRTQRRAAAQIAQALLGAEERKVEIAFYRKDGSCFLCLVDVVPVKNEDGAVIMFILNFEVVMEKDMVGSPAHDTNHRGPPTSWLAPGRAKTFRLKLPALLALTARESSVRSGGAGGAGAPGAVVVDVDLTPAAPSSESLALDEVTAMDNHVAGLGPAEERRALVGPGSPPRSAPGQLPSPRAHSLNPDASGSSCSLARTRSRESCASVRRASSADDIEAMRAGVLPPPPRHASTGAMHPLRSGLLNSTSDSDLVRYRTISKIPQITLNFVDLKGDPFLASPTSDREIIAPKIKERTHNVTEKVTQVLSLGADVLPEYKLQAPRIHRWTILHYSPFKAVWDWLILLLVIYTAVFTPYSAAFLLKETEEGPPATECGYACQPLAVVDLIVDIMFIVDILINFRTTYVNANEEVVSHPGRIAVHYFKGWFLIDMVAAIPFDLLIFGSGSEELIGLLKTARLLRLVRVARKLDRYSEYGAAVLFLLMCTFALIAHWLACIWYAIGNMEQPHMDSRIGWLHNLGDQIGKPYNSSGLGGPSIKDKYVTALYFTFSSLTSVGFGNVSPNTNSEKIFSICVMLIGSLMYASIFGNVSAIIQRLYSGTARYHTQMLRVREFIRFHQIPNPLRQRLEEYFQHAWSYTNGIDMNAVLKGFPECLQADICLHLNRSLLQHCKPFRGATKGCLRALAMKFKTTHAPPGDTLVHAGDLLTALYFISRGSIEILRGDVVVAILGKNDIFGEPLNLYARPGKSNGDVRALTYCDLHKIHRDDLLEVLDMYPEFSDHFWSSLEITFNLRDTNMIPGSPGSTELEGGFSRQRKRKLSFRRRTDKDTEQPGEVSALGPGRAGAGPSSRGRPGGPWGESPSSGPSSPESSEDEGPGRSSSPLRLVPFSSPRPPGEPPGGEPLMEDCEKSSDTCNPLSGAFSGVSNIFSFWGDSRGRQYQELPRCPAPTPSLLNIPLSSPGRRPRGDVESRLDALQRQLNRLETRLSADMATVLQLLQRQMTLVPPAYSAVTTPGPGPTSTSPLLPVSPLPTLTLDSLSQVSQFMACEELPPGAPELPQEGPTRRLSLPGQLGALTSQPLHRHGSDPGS

CYP2D6 = CYP2D6 (Homo sapiens, UniProt P10635); assay: CYP inhibitory rate, CYP2D6; format: in vitro ADME
CYP2D6, sequence (P10635 whole entry): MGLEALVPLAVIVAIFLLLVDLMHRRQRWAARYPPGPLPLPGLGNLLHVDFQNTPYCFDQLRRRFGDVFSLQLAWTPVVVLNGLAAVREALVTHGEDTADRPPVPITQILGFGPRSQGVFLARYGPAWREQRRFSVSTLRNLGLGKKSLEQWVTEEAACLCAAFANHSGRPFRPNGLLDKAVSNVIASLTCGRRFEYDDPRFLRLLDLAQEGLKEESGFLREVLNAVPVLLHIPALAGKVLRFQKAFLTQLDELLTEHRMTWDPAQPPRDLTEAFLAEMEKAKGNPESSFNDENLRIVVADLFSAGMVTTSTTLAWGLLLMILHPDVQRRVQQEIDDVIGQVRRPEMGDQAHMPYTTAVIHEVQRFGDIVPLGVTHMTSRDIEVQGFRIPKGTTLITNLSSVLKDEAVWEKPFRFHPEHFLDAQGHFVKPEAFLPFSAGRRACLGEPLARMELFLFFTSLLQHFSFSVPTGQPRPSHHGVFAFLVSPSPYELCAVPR

CYP2C9, sequence (P11712 whole entry): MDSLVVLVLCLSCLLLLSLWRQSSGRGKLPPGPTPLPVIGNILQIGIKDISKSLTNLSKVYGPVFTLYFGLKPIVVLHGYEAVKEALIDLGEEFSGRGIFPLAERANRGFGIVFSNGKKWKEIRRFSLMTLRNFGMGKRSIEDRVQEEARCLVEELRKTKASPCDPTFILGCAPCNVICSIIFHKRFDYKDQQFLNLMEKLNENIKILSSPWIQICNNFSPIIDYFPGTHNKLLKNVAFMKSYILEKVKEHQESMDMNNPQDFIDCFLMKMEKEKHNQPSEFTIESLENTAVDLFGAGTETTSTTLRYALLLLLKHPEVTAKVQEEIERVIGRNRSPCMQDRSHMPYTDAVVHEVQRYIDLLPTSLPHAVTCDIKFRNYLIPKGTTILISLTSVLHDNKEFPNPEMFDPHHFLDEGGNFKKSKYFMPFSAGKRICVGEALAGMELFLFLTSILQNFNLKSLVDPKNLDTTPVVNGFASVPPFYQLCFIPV

SMILES: C(#Cc1ccc2ccccc2n1)c1ccccn1 [Example 26, 2-(Pyridine-2-ylethynyl)quinoline]
- CYP (% remaining @ 10 μM) CYP2C9 (CYP2C9): >99%
- inhibition at 1 µM (mGluR5 [1]; 1 μM compound): 58.8%
- inhibition at 10 µM (mGluR5 [1]; 10 μM compound): 76.7%
- CL ([2]; intravenous injection (n=4)): 84.93 (±8.98) mL/min/kg
- T1/2 ([2]; intravenous injection (n=4)): 58.24 (±62.41) min
- Vdss ([2]; intravenous injection (n=4)): 1269.02 (±158.55) mL/kg
- F ([2]; oral administration): 15.9%
- Cmax ([2]; oral administration (n=3)): 0.43 (±0.18) μg/mL
- T1/2 ([2]; oral administration (n=3)): 48.53 (±8.06) min
- Tmax ([2]; oral administration (n=3), median value (range)): 10 (5-30)^a min
- inhibitory effect on cold allodynia [3]: higher inhibitory effect
- IC50 (mGluR5 [4]): 0.94 ± 0.25 µM
- HLM % remaining after 30 min [5]: 88%
- CYP (% remaining @ 10 μM) CYP3A4 (CYP3A4): 77%
- IC50 (hERG): 20.3 ± 6.11 µM
- CYP (% remaining @ 10 μM) CYP2D6 (CYP2D6): 98%
